Source: ChEMBL document CHEMBL1133056, “Structure-activity relationships of halichondrin B analogues: modifications at C.30-C.38” (Bioorg Med Chem Lett, 2000)

Experiments:
[1] = The compound was tested for its ability to maintain a irreversible mitotic block 10 hr after drug washout using flow cytometric analysis of U937 human histiocytic lymphoma cells; assay type: functional; settings: U-937, 10 h
[2] = system: P388; assay: The compound was tested for susceptibility to P-glycoprotein (PgP) mediated drug efflux using murine P388/VMDRC.04 cells under continuous exposure conditions for 3-4 days; assay type: functional, cell-based; settings: Mus musculus
[3] = system: DLD-1; assay: The compound was tested for cell growth inhibition against DLD-1 human colon cancer cells under continuous exposure conditions for 3-4 days; assay type: functional, cell-based
[4] = system: P388; assay: The compound was tested for susceptibility to […] murine P388/S leukemia cells under continuous exposure conditions for 3-4 days; assay type: functional, cell-based; settings: Mus musculus
[5] = system: P388; assay: Fold resistance was calculated as IC50 ratio between retrovirally transformed P388/VMDRC.04 and parental P388/S cells; assay type: functional, Mus musculus

Row | SMILES | IC99 [1] [µM] | IC50 [2] [nM] | IC50 [3] [nM] | IC50 [4] [nM] | FR [5]
1 | C=C1C[C@@H]2CC[C@@]34C[C@@H]5O[C@@H]6[C@@H](O[C@H]7CC[C@H](CC(=O)O[C@@H]8[C@@H](CC)[C@@H]9O[C@H](CO)[C@@H](O)C[C@@H]9O[C@H]8C[C@H]8O[C@@H](CC[C@@H]1O2)C[C@@H](C)C8=C)O[C@@H]7[C@@H]6O3)[C@H]5O4 | 1 | 16 | 6 | 1.6 | 10
2 | C=C1C[C@@H]2CC[C@@]34C[C@@H]5O[C@@H]6[C@@H](O[C@H]7CC[C@H](CC(=O)O[C@H]8C[C@@H]9O[C@H](CO)[C@@H](O)C[C@@H]9O[C@H]8C[C@H]8O[C@@H](CC[C@@H]1O2)C[C@@H](C)C8=C)O[C@@H]7[C@@H]6O3)[C@H]5O4 | – | – | 230 | – | –
3 | C=C1C[C@@H]2CC[C@@]34C[C@@H]5O[C@@H]6[C@@H](O[C@H]7CC[C@H](CC(=O)O[C@@H]8[C@@H](C)[C@@H]9O[C@H](CCO)[C@@H](O)C[C@@H]9O[C@H]8C[C@H]8O[C@@H](CC[C@@H]1O2)C[C@@H](C)C8=C)O[C@@H]7[C@@H]6O3)[C@H]5O4 | > 1 | 1.6 | 3.6 | 1.7 | 9.4
4 | C=C1C[C@@H]2CC[C@@]34C[C@@H]5O[C@@H]6[C@@H](O[C@H]7CC[C@H](CC(=O)O[C@@H]8[C@@H](C)[C@@H]9O[C@@H]%10CC(O)O[C@@H]%10C[C@@H]9O[C@H]8C[C@H]8O[C@@H](CC[C@@H]1O2)C[C@@H](C)C8=C)O[C@@H]7[C@@H]6O3)[C@H]5O4 (some centres not stated) | > 1 | 3.8 | 2.1 | 1.5 | 2.5
5 | CC(=O)O[C@H]1C(=O)[C@@]2(C)[C@H]([C@H](OC(=O)c3ccccc3)[C@]3(O)C[C@H](OC(=O)[C@H](O)[C@@H](NC(=O)c4ccccc4)c4ccccc4)C(C)=C1C3(C)C)[C@]1(OC(C)=O)CO[C@@H]1C[C@@H]2O [PACLITAXEL] | 0.23 | 170 | 27 | 16 | 11
6 | C=C1C[C@@H]2CC[C@@]34C[C@@H]5O[C@@H]6[C@@H](O[C@H]7CC[C@H](CC(=O)O[C@@H]8[C@@H](C)[C@@H]9O[C@@H]%10CCO[C@@H]%10C[C@@H]9O[C@H]8C[C@H]8O[C@@H](CC[C@@H]1O2)C[C@@H](C)C8=C)O[C@@H]7[C@@H]6O3)[C@H]5O4 | > 1 | 2.7 | 2.6 | 1.3 | 2.1
7 | C=C1C[C@@H]2CC[C@@]34C[C@@H]5O[C@@H]6[C@@H](O[C@H]7CC[C@H](CC(=O)O[C@@H]8[C@@H](C)[C@@H]9O[C@H](CCO)[C@H](O)C[C@@H]9O[C@H]8C[C@H]8O[C@@H](CC[C@@H]1O2)C[C@@H](C)C8=C)O[C@@H]7[C@@H]6O3)[C@H]5O4 | > 0.88 | 8.8 | 4.6 | 2.2 | 4
8 | C=C1C[C@@H]2CC[C@@]34C[C@@H]5O[C@@H]6[C@@H](O[C@H]7CC[C@H](CC(=O)O[C@@H]8[C@@H](C)[C@@H]9O[C@@H]%10CCOC%10(O)C[C@@H]9O[C@H]8C[C@H]8O[C@@H](CC[C@@H]1O2)C[C@@H](C)C8=C)O[C@@H]7[C@@H]6O3)[C@H]5O4 (some centres not stated) | 1 | 6.3 | 5.2 | 3.1 | 2
9 | C=C1C[C@@H]2CC[C@@]34C[C@@H]5O[C@@H]6[C@@H](O[C@H]7CC[C@H](CC(=O)O[C@@H]8[C@@H](C)[C@@H]9O[C@H](CCOC)[C@H](O)C[C@@H]9O[C@H]8C[C@H]8O[C@@H](CC[C@@H]1O2)C[C@@H](C)C8=C)O[C@@H]7[C@@H]6O3)[C@H]5O4 | > 0.65 | 1.5 | 1.2 | 0.55 | 2.7
10 | C=C1C[C@@H]2CC[C@@]34C[C@@H]5O[C@@H]6[C@@H](O[C@H]7CC[C@H](CC(=O)O[C@@H]8[C@@H](C)[C@@H]9O[C@H](CO)[C@H](O)C[C@@H]9O[C@H]8C[C@H]8O[C@@H](CC[C@@H]1O2)C[C@@H](C)C8=C)O[C@@H]7[C@@H]6O3)[C@H]5O4 | 0.22 | 8.2 | 3.4 | 0.71 | 12
11 | C=C1C[C@@H]2CCC34C[C@@H]5O[C@@H]6[C@@H](O[C@H]7CC[C@H](CC(=O)O[C@@H]8[C@@H](C)[C@@H]9O[C@@H]%10C[C@]%11(C[C@@H]%12O[C@]%13(C[C@H](C)[C@@H]%14O[C@H]([C@@H](O)C[C@@H](O)CO)C[C@@H]%14O%13)C[C@H](C)[C@@H]%12O%11)O[C@@H]%10C[C@@H]9O[C@H]8C[C@H]8O[C@@H](CC[C@@H]1O2)C[C@@H](C)C8=C)O[C@@H]7[C@@H]6O3)[C@H]5O4 | 0.025 | 1.7 | 0.74 | 0.6 | 2.8
12 | C=C1C[C@@H]2CC[C@@]34C[C@@H]5O[C@@H]6[C@@H](O[C@H]7CC[C@H](CC(=O)O[C@@H]8C[C@@H]9O[C@H](CO)[C@@H](O)C[C@@H]9O[C@H]8C[C@H]8O[C@@H](CC[C@@H]1O2)C[C@@H](C)C8=C)O[C@@H]7[C@@H]6O3)[C@H]5O4 | – | – | 610 | – | –
